Data on four compounds can be found in US20060089347A1, “Substituted azepines as histamine h3 receptor antagonists, preparation and therapeutic uses” (Eli Lilly and Company, priority 2002, published 2006).

Counter-ions that a name gives are not always drawn.

Data set [1] in a line: rat pharmacokinetics iv/po. Format: in vivo, Male Sprague Dawley Rats. To be noted: male, Sprague Dawley, blood; for bioavailability: 3 mg/kg iv or 10 mg/kg po, AUC 0-8 hr po/iv ratio, vehicle water; for half-life: 10 mg/kg po. As for the experimental part:
Non-imidazole containing histamine H3 receptor antagonists disclosed in the literature generally have very poor pharmacokinetic properties (see J. Apelt, et al, J. Med. Chem. 2002, 45, 1128-1141). […] Male Sprague Dawley Rats (n=3 per dose arm) were separately dosed with 3 mg/kg iv or 10 mg/kg po of compound examples 8 and 19 (vehicle: water; dose volume: 1 mL/kg iv, 10 ml/kg po). Approximately 0.5 mL of blood was collected in heparin collection tubes at multiple time points over an 8 or 24 hour period for examples 8 and 19 respectively, and the samples were analyzed using LC/MS/MS.

The next data set addresses T1, H3R membranes (Homo sapiens, UniProt Q9Y5N1).
T1 construct: expressed in transfected cells; host or cells: HEK293 (clone H3R8)
As to the kind of experiment: [35S]GTPγS binding assay (antagonist activity). Format: biochemical. To be noted: inhibition of [35S]GTPγS binding to H3R membranes in presence of agonist R(-)alpha methylhistamine. On the procedure:
Membranes isolated as described in (Preparation of Histamine Receptor Subtype Membranes) were used in a [35S]GTPχS functional assay. Binding of [35S]GTPχS to membranes indicates agonist activity. Compounds of the invention of Formula I were tested for their ability to inhibit binding in the presence of agonists. Alternately, the same transfected cell lines were used for a cAMP assay wherein H3R agonists inhibited forskolin-activated synthesis of cAMP. Compounds of Formula I were tested for their ability to permit forskolin-stimulated cAMP synthesis in the presence of agonist.
(§1) cDNA for the human histamine 3 receptor was cloned and expressed as described in (Preparation of Histamine Receptor Subtye Membranes: A), above. Transfected cells were selected using G418 ([…]), grown, and tested for histamine binding by the SPA described above. For total binding, cells were assayed in a SPA reaction described above containing 50 mM Tris-HCL (assay buffer), pH 7.6, 1 mg wheat germ agglutinin SPA beads (Amersham Pharmacia Biotech, #RPNQ0001), and 1nM […]-n-alpha-methylhistamine (NEN, NET1027) (total volume per well=200μl). Thioperimide was added to determine non-specific binding. […]
Antagonist activity of selected compounds was tested for inhibition of [35S] […] Plates were counted in Wallac Trilux 1450 Microbeta scintillation counter for 1 minute. […]
(In general: GTPγS resists hydrolysis and so accumulates on activated G proteins.)

In another data set the target is T2, H3R (Homo sapiens, UniProt Q9Y5N1).
T2 construct: expressed in transfected cells; host or cells: HEK293 (clone H3R8)
Nature of the data set: competitive inhibition SPA binding assay, H3R. To be noted: selectivity panel.
Text: The inventive compounds can readily be evaluated by using a competitive inhibition Scintillation Proximity Assay (SPA) based on a H3R binding assay using [3H] a methylhistamine as ligand. Stable cell lines, including but not limited to HEK can be transfected with cDNA coding for H3R to prepare membranes used for the binding assay. The technique is illustrated below (Preparation of Histamine Receptor Subtype Membranes) for the histamine receptor subtypes.
as §1, with “binding. Several clones were selected as positive for binding, and a single clone (H3R8) was used to prepare membranes for binding studies described above. Five micrograms of protein was used per well in the SPA receptor-binding assay.” for “binding.”

The target in a further data set is T3, H4R (Homo sapiens, UniProt Q9H3N8).
T3 construct: expressed in transfected cells; host or cells: HEK293 (HEK293 GPRv53 50 cells)
As to the kind of experiment: competitive binding assay, GPRv53 (H4R). To be noted: for Ki: competitive binding, selectivity panel; for inhibition of binding to H4R: in contrast to H3R. As for the experimental part:
cDNA for the human GPRv53 receptor was cloned and expressed as described in (Preparation of Histamine Receptor Subtype Membranes: A), above. Transfected cells were selected, tested for histamine binding, and selected. HEK293 GPRv53 50 cells were grown to confluency in DMEM/F12 (Gibco) supplemented with 5% FBS and 500 ug/ml G418 and washed with Delbecco's PBS (Gibco) and harvested by scraping. Whole cells were homogenized with a Polytron tissuemizer in binding buffer, 50 mM Tris pH 7.5. Cell lysates, 50 ug, were incubated in 96 well dishes with 3 nM (3H) Histamine and compounds in binding buffer for 2 hours at room temperature. Lysates were filtered through glass fiber filters (Perlin Elmer) with a Tomtec cell harverster. Filters were counted with melt-on scintillator sheets (Perlin Elmer) in a Wallac Trilux 1450 Microbeta Scintillation counter for 5 minutes.
(§2) To investigate the selectivity of the antagonists for the histamine receptors, a competitive binding assay described above was performed. […] Until the present invention, most known H3R antagonists also bound H4R.

A further data set has as its target T4, H1R (Homo sapiens, UniProt P35367).
T4 construct: expressed in transfected cells; host or cells: HEK293 (clone HIR40), vector pcDNA3.1(+)
Nature of the data set: competitive SPA binding assay, H1R. To be noted: selectivity panel. As for the experimental part: cDNA for the human histamine 1 receptor (H1R) was cloned into a mammalian expression vector containing the CMV promoter (pcDNA3.1(+), Invitogen) and transfected into HEK293 cells using the FuGENE Tranfection Reagent (Roche Diagnostics Corporation). Transfected cells were selected using G418 (500 μ/ml). Colonies that survived selection were grown and tested for histamine binding to cells grown in 96-well dishes using a scintillation proximity assay (SPA) based radioligand binding assay. Briefly, cells, representing individual selected clones, were grown as confluent monolayers in 96-well dishes (Costar Clear Bottom Plates, #3632) by seeding wells with 25,000 cells and growing for 48 hours (37° C., 5% CO2). Growth media was removed and wells were rinsed two times with PBS (minus Ca^2+ or Mg^2+). For total binding, cells were assayed in a SPA reaction containing 50 mM Tris-HCL (assay buffer), pH 7.6, 1 mg wheat germ agglutinin SPA beads (Amersham Pharmacia Biotech, #RPNQ0001), and 0.8 nM ^3H-pyrilamine (Net-594, NEN) (total volume per well=[…]). Astemizole (10 μM, Sigma #A6424) was added to appropriate wells to determine non-specific binding. Plates were covered with FasCal and incubated at room temperature for 120 minutes. […] Plates were counted in a Wallac Trilux 1450 Microbeta scintillation counter. […]

For a further data set, the target named is T5, H2R (Homo sapiens, UniProt P25021).
T5 construct: expressed in transfected cells; host or cells: HEK 293 (clone H2R10)
As to the kind of experiment: competitive SPA binding assay, H2R. To be noted: selectivity panel. On the procedure:
cDNA for the human histamine 2 receptor was cloned, expressed and transfected into HEK 293 cells as described above. Histamine binding to cells was assayed by SPA described above. For total binding, cells were assayed in a SPA reaction containing 50 mM Tris-HCl (assay buffer), pH 7.6, 1 mg wheat germ agglutinin SPA beads (Amersham PharmaciaBiotech, #RPNQ0001), and 6.2 nM ^3H-tiotidine (Net-688, NEN) (total volume per well=200 μl). Cimetidine (10 μM, Sigma #C4522) was added to appropriate wells to determine non-specific binding.
Several clones were selected as positive for binding, and a single clone (H2R10) was used to prepare membranes for binding studies. Five micrograms of protein was used per well in the SPA receptor-binding assay.
as §2

T3 sequence (Q9H3N8 whole entry): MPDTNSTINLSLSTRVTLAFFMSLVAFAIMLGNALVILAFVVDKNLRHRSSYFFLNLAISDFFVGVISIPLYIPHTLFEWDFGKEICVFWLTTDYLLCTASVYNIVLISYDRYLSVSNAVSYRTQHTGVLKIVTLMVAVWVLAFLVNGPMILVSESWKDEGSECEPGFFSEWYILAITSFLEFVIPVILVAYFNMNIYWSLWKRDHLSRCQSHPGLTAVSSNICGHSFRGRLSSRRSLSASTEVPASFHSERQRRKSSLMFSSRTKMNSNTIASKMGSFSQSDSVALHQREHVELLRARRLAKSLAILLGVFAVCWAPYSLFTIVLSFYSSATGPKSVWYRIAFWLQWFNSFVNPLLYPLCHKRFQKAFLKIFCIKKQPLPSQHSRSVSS
T4 sequence (P35367 whole entry): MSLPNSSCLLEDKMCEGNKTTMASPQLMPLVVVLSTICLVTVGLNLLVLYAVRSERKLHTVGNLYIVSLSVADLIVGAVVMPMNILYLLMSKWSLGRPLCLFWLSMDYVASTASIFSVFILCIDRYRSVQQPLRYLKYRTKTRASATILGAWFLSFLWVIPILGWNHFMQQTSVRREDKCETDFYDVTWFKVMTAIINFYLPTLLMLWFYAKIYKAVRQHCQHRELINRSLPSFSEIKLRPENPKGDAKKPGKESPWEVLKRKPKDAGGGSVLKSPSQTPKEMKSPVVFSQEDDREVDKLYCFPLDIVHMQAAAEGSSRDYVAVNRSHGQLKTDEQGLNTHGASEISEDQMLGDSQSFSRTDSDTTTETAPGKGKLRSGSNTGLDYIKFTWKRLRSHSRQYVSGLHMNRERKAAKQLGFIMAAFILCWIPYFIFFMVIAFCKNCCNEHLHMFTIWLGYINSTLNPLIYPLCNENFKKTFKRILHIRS
T5 sequence (P25021 whole entry): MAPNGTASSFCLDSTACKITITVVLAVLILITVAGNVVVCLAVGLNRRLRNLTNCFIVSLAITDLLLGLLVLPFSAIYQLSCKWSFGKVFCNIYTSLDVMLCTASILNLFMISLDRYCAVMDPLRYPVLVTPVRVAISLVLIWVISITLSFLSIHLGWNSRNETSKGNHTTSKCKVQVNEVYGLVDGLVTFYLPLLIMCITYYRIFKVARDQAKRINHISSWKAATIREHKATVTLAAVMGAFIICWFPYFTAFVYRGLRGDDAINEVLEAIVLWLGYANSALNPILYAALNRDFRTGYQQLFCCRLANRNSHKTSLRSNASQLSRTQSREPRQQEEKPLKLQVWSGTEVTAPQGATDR
T2 sequence (Q9Y5N1 whole entry): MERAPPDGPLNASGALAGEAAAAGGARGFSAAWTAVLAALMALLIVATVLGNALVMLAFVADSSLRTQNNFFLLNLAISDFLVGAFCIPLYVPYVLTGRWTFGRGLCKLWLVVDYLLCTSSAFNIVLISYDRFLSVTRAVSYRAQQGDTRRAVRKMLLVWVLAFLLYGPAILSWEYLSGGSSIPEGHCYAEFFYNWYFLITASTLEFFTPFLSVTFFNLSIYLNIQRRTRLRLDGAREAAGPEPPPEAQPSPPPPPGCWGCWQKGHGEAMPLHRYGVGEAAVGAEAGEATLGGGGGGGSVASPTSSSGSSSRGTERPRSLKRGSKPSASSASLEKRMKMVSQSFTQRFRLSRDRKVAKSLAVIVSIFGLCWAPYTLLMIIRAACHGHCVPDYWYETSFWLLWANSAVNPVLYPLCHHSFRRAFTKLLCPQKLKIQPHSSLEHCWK
T1 sequence (Q9Y5N1 whole entry): as above

Take `CC(=O)N1CCc2ccc(OCCCN3CCCCC3)cc2CC1` [Example 19, 1-[7-(3-Piperidin-1-yl-propoxy)-1,2,4,5-tetrahydro-benzo[d]azepin-3-yl]-ethanone]: in data set [1], the bioavailability (in general, dose-corrected exposure relative to a reference, in per cent) is 100% and the half-life – broadly, how long it takes for the measured level to halve – is 12.4 h.
For `c1cc2c(cc1OCCCN1CCCCC1)CCCNC2` [Example 2, 7-(3-Piperidin-1-yl-propoxy)-2,3,4,5-tetrahydro-1H-benzo[c]azepine dihydrochloride], the inhibition constant (Ki) (as a rule, a measure of affinity in units of concentration, obtained from inhibition or displacement) at H3R membranes was 0.85 nM; on H3R it was 0.85 nM; at H4R, at least 20000 nM; on H1R, 1760 nM; at H2R it was 894 nM. In addition, the “inhibition of binding to H4R” value at H4R is given as “did not inhibit binding H4R”.
For the compound `CC(C)(C)OC(=O)N1CCCc2cc(OCCCN3CCCCC3)ccc2C1` [Example 1, 7-(3-Piperidin-1-yl-propoxy)-1,3,4,5-tetrahydro-benzo[c]azepine-2-carboxylic acid tert-butyl ester], the inhibition constant (Ki) on H3R membranes is 5.1 nM; on H3R, 5.1 nM; at H4R, at least 20000 nM; on H1R it was 648 nM; at H2R, 813 nM. Also, the “inhibition of binding to H4R” value at H4R was “did not inhibit binding H4R”.
Consider `CN(C)CC(=O)N1CCCc2cc(OCCCN3CCCCC3)ccc2C1` [Example 8, 2-Dimethylamino-1-[7-(3-piperidin-1-yl-propoxy)-1,3,4,5-tetrahydro-benzo[c]azepin-2-yl]-ethanone], for which, in data set [1], the bioavailability turned out to be 49% and the half-life is 12.2 h.
